These results are taken from patent publication US11213527B2, “Inhibitory effect of low molecular weight compound on cancer and fibrosis” (NATIONAL UNIVERSITY CORPORATION TOTTORI UNIVERSITY, priority 2014, dated 2022).

Assay [1] relates to fibrosis markers TGFβ, α-SMA, and COL1A1. In words: Real-time PCR of fibrosis markers in LX-2 cells. To be noted: compound+TGFβ, with increasing concentration. The class given is cell-based, human. As to the method: (§1) A human liver stellate cell line (LX-2 cells) was maintained and cultured in a DMEM containing 10% FBS. The cells used for experiments were suspended in a DMEM containing 1% FBS and plated. The cell density was at about 2.0×10^5 cell/cm^2.
A real-time PCR was carried out to examine an inhibitory effect of each low-molecular-weight compound on fibrosis. The real-time PCR was conducted under conditions indicated in FIG. 55 and the following sections 9.4.1 to 9.4.2. Note that TGFβ, α-SMA, and COL1A1 are fibrosis markers.
A pre-Mix was prepared by using MilliQ water: 5.2 μL/sample, MgCl2: 0.8 μl/sample, 10 μM primer F: 0.5 μl, 10 μM primer R: 0.5 μl, and LightCycler FastStart DNA Master SYBER Green I (1a+1b): […]/sample. Next, 8 μL of the pre-Mix was pipetted into each well. Then, 2 μL of the sample was added thereto.
(Real-time PCR tracks product formation cycle by cycle.)

For a further assay, the system named is Wnt/β-catenin signal. In words: Luciferase assay in liver stellate cells (LX-2). Format: cell-based, human. On the procedure: as §1
A luciferase assay was used to investigate an inhibitory effect of each low-molecular-weight compound on a Wnt/β-catenin signal. The luciferase assay was conducted under conditions indicated in FIG. 40 and the following sections 9.3.1 to 9.3.2. FIG. 40 illustrates a protocol when the cells were treated with a low-molecular-weight compound+TGFβ. Substantially the same experiment was carried out when the cells were treated with a low-molecular-weight compound alone or a low-molecular-weight compound+Wnt3a. Note that TGFβ or Wnt3a was added so as to increase the intensity of a Wnt/β-catenin signal.
First, 5×Passive Lysis Buffer was diluted 5-fold with MilliQ water. The lysis buffer was added at 100 μl/well and the plate was shaken for 20 min. The lysate was frozen at −30° C. overnight.
The sample frozen a day before, LARII, a Stop&Glo buffer, and a Stop&Glo substrate (materials other than the sample were shaded) were incubated at room temperature for about 1 h. A Stop&Glo solution (49 μl of the Stop&Glo buffer and 1 μl of the Stop&Glo substrate) was prepared for the number of the samples+1. Next, 50 μl of the LARII was dispensed into a 3.5-ml tube. Then, 10 μl of the sample was added and the tube was set in a measurement instrument. After completion of the first assay, 50 μl of the Stop&Glo solution was added and the tube was again set in the measurement instrument for another assay.

Another assay has as its system liver fibrosis. Put plainly: Liver disease model mice (carbon tetrachloride-induced liver fibrosis). Format: in vivo, C57BL/6 male mice. To be noted: IC-2 10.6 or 21.2 mg/kg intraperitoneally 3 times a week for 4 weeks, vs vehicle. On the procedure:
First, 7-week-old C57BL/6 male mice (Japan SLC, Shizuoka, Japan) were subject to 1-week preparatory rearing. Among them, healthy mice were used. The mice were housed in an animal cage at a room temperature of 22±1° C. and a humidity of 50±5% throughout the preparatory rearing and experimental period and were given ad libitum access to food and water.
A microsyringe (ITO CORPORATION, Shizuoka, Japan) was used to intraperitoneally administer carbon tetrachloride (CCl4: Wako Pure Chemical Industries, Ltd., Osaka, Japan) at 0.2 ml/kg, 3 times a week, for 4, 6, or 8 weeks. Carbon tetrachloride was dissolved into cone oil (Wako Pure Chemical Industries, Ltd.) at a concentration of 10%. The resulting solution was used. After this carbon tetrachloride solution was administered for 4 weeks, the mice were divided into a vehicle administration group, a glycyrrhizin administration group, an ICG-001 administration group, and an IC-2 administration group. Then, a microsyringe was used to intraperitoneally administer, 3 times a week for 4 weeks, carbon tetrachloride and a drug solution prepared in accordance with the following process. Note that the carbon tetrachloride and the drug solution were alternately administered with one-day interval.
Glycyrrhizin (TOKYO CHEMICAL INDUSTRY CO., LTD., Tokyo, Japan) was dissolved in physiological saline. The solution was prepared at a concentration of 30 mg/ml while the pH was adjusted to 7.0 with 4 M NaOH liquid. IC-2 and ICG-001 (AdooQ BioScience, California, USA) were each dissolved in a WellSolve (Celeste Corporation, Tokyo, Japan) at a concentration of 40 mg/ml and 10 mg/ml, respectively. Next, the mixture was heated for 10 min in a hot water bath at 60° C. and was then completely dissolved. A 9-fold volume of physiological saline was added to the WellSolve solution in which the above drugs had each been dissolved. […] Note that an IC-2 dosage was determined on the basis of an effective concentration in vitro. […]

`O=C1[C@H](Cc2ccccc2)N2C(=O)CCN(C(=O)NCc3ccccc3)[C@H]2CN1Cc1cccc2ccccc12` [IC-2]: the “level of expression of COL1A1” value in assay [1] (24 or 48 hours) is given as “decreased”. Besides, in assay [1] (24 or 48 hours), the “level of expression of α-SMA” value is reported as “remarkably reduced”. The “level of expression of TGFβ” value in assay [1] (24 hours) and in assay [1] (48 hours) was “decreased” in each case. For the same compound, the “inhibition of a Wnt/β-catenin signal in the LX-2 cells” value in the assay on Wnt/β-catenin signal (compound alone, 24 hours) is reported as “resulted in inhibition”; in the assay with Wnt/β-catenin signal (compound alone, 48 hours) it was “resulted in inhibition”; with Wnt/β-catenin signal (compound+TGFβ, 24 hours), “resulted in inhibition”; in the assay on Wnt/β-catenin signal (compound+TGFβ, 48 hours), “resulted in inhibition”; with Wnt/β-catenin signal (compound+Wnt3a, 24 hours), “resulted in inhibition”. For the same compound, the “fibrosis area (Sirius red staining)” value with liver fibrosis is listed as “a decrease in the fibrosis area was detected”. For the same compound, in the assay with liver fibrosis (glycyrrhizin 150 mg/kg), the content of hydroxyproline entry is “a large decrease was observed”.
